Reference: patent US20130310256A1, “HERBICIDAL COMPOSITIONS COMPRISING 4-AMINO-3-CHLORO-5-FLUORO-6-(4-CHLORO-2-FLUORO-3-METHOXYPHENYL) PYRIDINE-2-CARBOXYLIC ACID OR A DERIVATIVE THEREOF AND VLCFA AND LIPID SYNTHESIS INHIBITING HERBICIDES” (DOW AGROSCIENCES LLC, priority 2008, published 2013)
Where “and” joins values, the source holds several entries; their conditions need not be identical. Identical values can stand only once.

Columns and labels:
BRAPP = assay: Example I: postemergence foliar-applied weed control, direct seeded rice weeds, greenhouse; format: in vivo; conditions: for Visual Weed Control Obs: 20 DAA; for Visual Weed Control (%) - 22 DAA BRAPP Obs: foliar
Method in brief: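 Plants grown in loam/sandy loam–calcareous grit soil (80:20) in greenhouse, 14 hr photoperiod, about 29° C. day/26° C. night, treated postemergence at first to fourth true leaf stage. Foliar spray at 187 L/ha with 1.25% (v/v) crop oil concentrate; Compound A dosed on acid equivalent basis, partners on active ingredient basis.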

SCPJU = assay: Example I: postemergence foliar-applied weed control, greenhouse; format: in vivo, Schoenoplectus juncoides (Roxb.) Palla (Japanese bulrush)
POLHP = assay: Example V: field trial, in-water application to transplanted rice, Niigata, Japan; format: in vivo, Polygonum hydropiperoides; conditions: 31 DAA, submerged weeds
Experimental: Post and pre-emergence field trials were conducted in Niigata, Japan. Trial sites were located in commercially grown fields of transplanted rice (Oryza sativa, variety: Koshihikari) using standard herbicide small plot research methodology. The trial plot size was 2 meters (m)×2 m with 3 replications. The nursery plants were grown in the greenhouse using practical methods and transplanted into the field at the 2.5-leaf stage on May 7, 2012. The row and in-row spaces were 30 cm and 17 cm, respectively. The crop was grown using normal cultural practices for fertilization, water management and maintenance to ensure good growth of the crop and the weeds.
Treatments consisted of the benzyl ester of 4-amino-3-chloro-5-fluoro-6-(4-chloro-2-fluoro-3-methoxyphenyl)pyridine-2-carboxylic acid (Compound A) formulated as an SC (suspension concentrate) and various herbicidal components alone and in combination. Compound A benzyl ester was applied on an active ingredient basis. […]
Compound A benzyl ester SC was once diluted in 100 mL water in the 200 mL bottle/plot to achieve the desired rates and applied by water injection. […] Visual weed control was scored on a scale of 0 to 100 percent where 0 corresponds to no injury and 100 corresponds to complete kill. […]

## CCN(CC)C(=O)n1cnc(S(=O)(=O)c2c(C)cc(C)cc2C)n1 [Cafenstrole, N,N-diethyl-3-[(2,4,6-trimethylphenyl)sulfonyl]-1H-1,2,4-triazole-1-carboxamide]
BRAPP; 26.25 gai/ha Himeadow WP
  Visual Weed Control Obs: 0%
BRAPP; 52.5 gai/ha Himeadow WP
  Visual Weed Control Obs: 0%
BRAPP; 105 gai/ha Himeadow WP
  Visual Weed Control Obs: 0%
SCPJU; 26.25 gai/ha
  Visual Weed Control (%) - 21 DAA SCPJU Obs: 0%
SCPJU; 52.5 gai/ha
  Visual Weed Control (%) - 21 DAA SCPJU Obs: 0%
SCPJU; 105 gai/ha
  Visual Weed Control (%) - 21 DAA SCPJU Obs: 0%

## COc1c(Cl)ccc(-c2nc(C(=O)OCc3ccccc3)c(Cl)c(N)c2F)c1F [Compound A Benzyl Ester, benzyl ester of 4-amino-3-chloro-5-fluoro-6-(4-chloro-2-fluoro-3-methoxy-phenyl)pyridine-2-carboxylic acid]
POLHP; 100 gai/ha
  Visual Weed Control POLHP Obs: 68.3%
BRAPP; 8 gae/ha
  Visual Weed Control (%) - 22 DAA BRAPP Obs: 60% and 65%
BRAPP; 16 gae/ha
  Visual Weed Control (%) - 22 DAA BRAPP Obs: 60% and 80%
BRAPP; 4.38 gae/ha
  Visual Weed Control Obs: 60%
BRAPP; 8.75 gae/ha
  Visual Weed Control Obs: 65%
BRAPP; 32 gae/ha
  Visual Weed Control (%) - 22 DAA BRAPP Obs: 90% and 85%
SCPJU; 4.38 gae/ha
  Visual Weed Control (%) - 21 DAA SCPJU Obs: 40%

## CCCOCCN(C(=O)CCl)c1c(CC)cccc1CC [Pretilachlor, 2-chloro-N-(2,6-diethylphenyl)-N-(2-propoxyethyl)acetamide]
BRAPP; 37.5 gai/ha
  Visual Weed Control Obs: 0%
BRAPP; 75 gai/ha
  Visual Weed Control Obs: 0%
BRAPP; 150 gai/ha
  Visual Weed Control Obs: 0%

## CCS(=O)(=O)Oc1ccc2c(c1)C(C)(C)CO2 [Benfuresate, 2,3-dihydro-3,3-dimethyl-5-benzofuranyl ethanesulfonate]
POLHP; 600 gai/ha
  Visual Weed Control POLHP Obs: 94.3%

## COc1c(Cl)ccc(-c2nc(C(=O)O)c(Cl)c(N)c2F)c1F [Compound A Acid, 4-amino-3-chloro-6-(4-chloro-2-fluoro-3-methoxyphenyl)-5-fluoropyridine-2-carboxylic acid]
BRAPP; 4.38 gae/ha
  Visual Weed Control Obs: 50% and 60% and 75%
BRAPP; 8.75 gae/ha
  Visual Weed Control Obs: 70% and 80%
